Assay [1] concerns NCI-H1703. The experiment in a line: Induction of apoptosis in human NCI-H1703 cells assessed as decrease in Bcl-XL protein expression at […] by measuring fold change by Western blot analysis relative to control. The format is functional. Conditions: dose 7.5 µM. Background: A western blot detects proteins with antibodies after separation by electrophoresis.
In assay [2] the target is T1, Histone-lysine N-methyltransferase NSD2 (Homo sapiens) (UniProt O96028).
T1 sequence (whole entry): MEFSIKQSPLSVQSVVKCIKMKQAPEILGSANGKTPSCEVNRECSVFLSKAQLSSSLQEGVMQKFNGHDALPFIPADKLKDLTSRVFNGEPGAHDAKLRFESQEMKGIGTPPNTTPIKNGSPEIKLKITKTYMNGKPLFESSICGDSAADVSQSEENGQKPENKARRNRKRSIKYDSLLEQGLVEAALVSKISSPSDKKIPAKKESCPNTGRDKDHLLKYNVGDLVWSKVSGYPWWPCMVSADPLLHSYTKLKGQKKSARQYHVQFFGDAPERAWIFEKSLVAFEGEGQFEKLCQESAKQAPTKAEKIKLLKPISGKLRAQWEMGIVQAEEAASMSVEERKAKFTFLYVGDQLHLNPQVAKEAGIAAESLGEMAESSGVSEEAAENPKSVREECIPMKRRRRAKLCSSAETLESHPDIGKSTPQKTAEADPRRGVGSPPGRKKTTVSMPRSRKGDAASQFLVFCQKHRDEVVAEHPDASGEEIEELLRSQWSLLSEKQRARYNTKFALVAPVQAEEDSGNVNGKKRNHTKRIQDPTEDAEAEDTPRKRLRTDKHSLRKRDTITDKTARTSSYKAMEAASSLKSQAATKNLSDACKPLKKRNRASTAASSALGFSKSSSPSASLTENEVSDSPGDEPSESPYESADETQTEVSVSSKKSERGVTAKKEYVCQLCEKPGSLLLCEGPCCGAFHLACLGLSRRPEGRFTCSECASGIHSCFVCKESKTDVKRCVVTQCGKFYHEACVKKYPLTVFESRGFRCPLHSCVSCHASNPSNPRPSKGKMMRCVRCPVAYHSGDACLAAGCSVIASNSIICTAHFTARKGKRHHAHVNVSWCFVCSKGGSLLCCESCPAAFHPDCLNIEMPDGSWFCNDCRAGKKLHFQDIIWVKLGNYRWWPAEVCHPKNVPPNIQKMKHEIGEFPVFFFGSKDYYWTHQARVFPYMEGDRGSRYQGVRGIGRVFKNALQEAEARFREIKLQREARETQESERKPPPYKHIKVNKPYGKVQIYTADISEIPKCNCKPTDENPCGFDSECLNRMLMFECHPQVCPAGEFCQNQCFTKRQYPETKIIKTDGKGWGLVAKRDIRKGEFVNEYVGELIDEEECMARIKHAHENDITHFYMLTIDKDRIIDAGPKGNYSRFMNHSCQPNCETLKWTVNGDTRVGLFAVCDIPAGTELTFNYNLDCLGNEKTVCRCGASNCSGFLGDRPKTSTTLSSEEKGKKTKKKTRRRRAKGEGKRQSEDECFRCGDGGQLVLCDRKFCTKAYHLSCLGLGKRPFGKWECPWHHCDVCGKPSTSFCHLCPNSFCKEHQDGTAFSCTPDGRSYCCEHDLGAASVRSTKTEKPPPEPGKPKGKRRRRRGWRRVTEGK
The experiment in a line: Induction of NSD2 degradation in human NCI-H1703 cells at 3 to […] incubated for 72 hrs by Western blot analysis. Type of assay: cell-based. As to conditions: dose 3-7.5 µM.

Another assay concerns NCI-H520. Briefly: Downregulation of CDC25A level in human NCI-H520 cells at 3 to […] by Western blot analysis. The format is functional, cell-based. As to conditions: dose 3-7.5 µM.
Assay [3] in a line: Downregulation of CDC25A level in human NCI-H520 cells at 5 uM by measuring fold change by Western blot analysis relative to control. Type of assay: functional.
A short description of assay [4]: Downregulation of c-Myc level in human NCI-H1703 cells at […] by measuring fold change by Western blot analysis relative to control. The format is functional. Conditions: dose 7.5 µM.
Assay [5] is described as follows: Downregulation of Cyclin D1 level in human NCI-H520 cells at 5 uM by measuring fold change by Western blot analysis relative to control. The format is functional.
The subject of assay [6] is NCI-H1703. Briefly: Downregulation of CDC25A in human NCI-H1703 cells at […] measured after 72 hrs by RNA sequencing assay. The format is functional, cell-based. As to conditions: dose 7.5 µM.
Assay [7] in a line: Downregulation of NSD3 level in human NCI-H1703 cells at […] by measuring fold change by Western blot analysis relative to control. The format is functional. Conditions: dose 7.5 µM.
Another assay relates to A549. Briefly: Antiproliferative activity against human A549 cells incubated for 3 days by CCK-8 method. Type of assay: functional, cell-based. Conditions: A549, 72 h. For orientation: Tetrazolium assays rely on reduction of a dye to a coloured formazan, in cell work by metabolically active cells.

pIC50: −log10 of the molar value. Activity calls are given as the source filed them. No cut-off for these calls is given here.

For orientation: pIC50 means the negative decadic logarithm of the IC50, by convention in mol/L. Read a high pIC50 as a small IC50.

Turning to `Cc1cc(CNCCCCCCCCCCC(=O)N[C@H](C(=O)N2C[C@H](O)C[C@H]2C(=O)N[C@@H](C)c2ccc(-c3scnc3C)cc2)C(C)(C)C)cc(C)c1-c1ncn(C)c1-c1ccnc2cc(F)ccc12`, the “fold change (FC)” value in the assay with NCI-H1703 [1] stood at 0.67; in assay [3] it was 0.93; in assay [4], 0.72; in [5], 0.8; in [7] it was 0.66. Besides, the outcome in [2] was inactive. In addition, the result in the assay with NCI-H520 and with NCI-H1703 [6] was Active. This compound also gave a negative logarithm of the IC50 (pIC50) in the assay on A549 of 5.26.

(Values after ChEMBL document CHEMBL5338706, “Discovery of a potent and selective proteolysis targeting chimera (PROTAC) degrader of NSD3 histone methyltransferase” (Eur J Med Chem, 2022).)
